Measurements as given in US20220409727A1, “Metal Complexes Bearing Bisstyryl-Bipyridine Ligand and Their Use as Photosensitizer Agent in One and Two-Photon Photodynamic Therapy” (Paris Sciences et Lettres, priority 2019, published 2022).

Test system: SW620/AD300 (doxorubicin-selected P-gp-overexpressing human colon cancer cell) tumour-bearing nude mice
Assay: In vivo PDT in tumour-bearing nude mice
Protocol: 6 weeks age nu/nu female mice were purchased from Charles River. Compound 7 was dissolved into physiological saline at first. Tumor xenograft: 6×10^6 SW620/AD300 cells were subcutaneously (s.c.) injected in the nude mice, the cells were suspension in 150 μL Matrigel (Corning) and saline (1:1, v/v). After a week, the tumor volumes of the mice reached approximately 80 mm^3.
30 SW620/AD300 nude tumour-bearing nude mice were randomly separated into 6 groups and five mice for each group.
Group 1: injected 7 (2 mg/Kg 50 μL) intravenously and irradiate under 800 nm laser (50 mW, 1 kHz, pulse width 35 fs, 5 s/mm) 1 h after injection;
Group 2: injected 7 (2 mg/Kg 50 μL) intravenously and irradiate under 500 nm light (10 mW/cm^2, 60 min);
Group 3: injected by physiological saline (50 μL) and treated with 800 nm laser (50 mW, 1 kHz, pulse width 35 fs, 5 s/mm) 1 h after injection;
Group 4: injected by physiological saline (50 μL) and treated with 500 nm light (10 mW/cm^2, 60 min);
Group 5: intravenous injected 7 (2 mg/Kg 50 μL);
Group 6: injected 50 μL physiological saline.
The mice were anesthetized by the injection of 4% chloral hydrate aqueous solution (0.2 mL/20 g) before treatment. The tumour volume and body weight were measured and record for each two days. Tumor volume was calculated by the following formula
After the treatment, the mice were euthanized. The tumour was collected and fixated by 4% paraformaldehyde, and then obtained as paraffin-embedded samples and stained with hematoxylin and eosin (H&E). A Carl Zeiss Axio Imager Z2 microscope was used to observe the tissue structure and cell state of the sections.

Substance: [Ru(bipy)2((E,E′)-4,4′-Bis[p-(N,N-methoxy)styryl]-2,2′-bipyridine)][PF6]2 [Compound 7]
- behaviour of treated animals (2 mg/Kg intravenously): behave normally, without signs of pain, stress or discomfort
- tumour volume, PDT treated (2 mg/Kg intravenously plus 2P irradiation at 800 nm or 1P irradiation at 500 nm, 15 days): drastically shrank until they were nearly eradicated
- tumour volume, compound only (2 mg/Kg intravenously, no irradiation): did not show any significant effect
